Laboratory results reported in the NIST ThermoML archive (doi:10.1016/j.jct.2018.03.013).

Experiment: xn = mol fraction of the nth substance listed
Details: 100 kPa, Liquid; for speed of sound: Frequency=3 MHz, Linear variable-path acoustic interferometer; for mass density: Pycnometric method

C=C(C)C(=O)OCC [ethyl 2-methylpropenoate] + CC#N
Details | mass density [kg/m3] | speed of sound [m/s]
293.15 K, x2 = 0 | 912.3 | 1196.8
293.15 K, x2 = 0.0556 | 909.47 | 1200.9
293.15 K, x2 = 0.1112 | 906.38 | 1205
293.15 K, x2 = 0.1631 | 903.24 | 1208.8
293.15 K, x2 = 0.2147 | 899.86 | 1212.6
293.15 K, x2 = 0.2795 | 895.21 | 1217.4
293.15 K, x2 = 0.3446 | 890.04 | 1222.2
293.15 K, x2 = 0.4132 | 883.98 | 1227.4
293.15 K, x2 = 0.4819 | 877.18 | 1232.8
293.15 K, x2 = 0.5597 | 868.44 | 1239.5
293.15 K, x2 = 0.6375 | 858.38 | 1246.9
293.15 K, x2 = 0.7251 | 845.11 | 1256.4
293.15 K, x2 = 0.8113 | 829.5 | 1267.7
293.15 K, x2 = 0.9014 | 809.62 | 1282.6
293.15 K, x2 = 0.9542 | 795.78 | 1293.4
298.15 K, x2 = 0 | 907.18 | 1176.9
298.15 K, x2 = 0.0556 | 904.36 | 1181
298.15 K, x2 = 0.1112 | 901.28 | 1185.1
298.15 K, x2 = 0.1631 | 898.14 | 1188.8
298.15 K, x2 = 0.2147 | 894.76 | 1192.5
298.15 K, x2 = 0.2795 | 890.11 | 1197.2
298.15 K, x2 = 0.3446 | 884.94 | 1201.9
298.15 K, x2 = 0.4132 | 878.87 | 1207
298.15 K, x2 = 0.4819 | 872.05 | 1212.3
298.15 K, x2 = 0.5597 | 863.29 | 1218.8
298.15 K, x2 = 0.6375 | 853.22 | 1226
298.15 K, x2 = 0.7251 | 839.92 | 1235.4
298.15 K, x2 = 0.8113 | 824.27 | 1246.5
298.15 K, x2 = 0.9014 | 804.36 | 1261.1
298.15 K, x2 = 0.9542 | 790.5 | 1271.8
303.15 K, x2 = 0 | 902.06 | 1157.6
303.15 K, x2 = 0.0556 | 899.25 | 1161.8
303.15 K, x2 = 0.1112 | 896.18 | 1165.9
303.15 K, x2 = 0.1631 | 893.05 | 1169.6
303.15 K, x2 = 0.2147 | 889.66 | 1173.3
303.15 K, x2 = 0.2795 | 885.01 | 1177.9
303.15 K, x2 = 0.3446 | 879.82 | 1182.6
303.15 K, x2 = 0.4132 | 873.74 | 1187.7
303.15 K, x2 = 0.4819 | 866.92 | 1193
303.15 K, x2 = 0.5597 | 858.14 | 1199.5
303.15 K, x2 = 0.6375 | 848.05 | 1206.7
303.15 K, x2 = 0.7251 | 834.72 | 1216.2
303.15 K, x2 = 0.8113 | 819.05 | 1227.4
303.15 K, x2 = 0.9014 | 799.1 | 1242.2
303.15 K, x2 = 0.9542 | 785.22 | 1252.9
308.15 K, x2 = 0 | 896.94 | 1139.4
308.15 K, x2 = 0.0556 | 894.14 | 1143.6
308.15 K, x2 = 0.1112 | 891.07 | 1147.7
308.15 K, x2 = 0.1631 | 887.95 | 1151.4
308.15 K, x2 = 0.2147 | 884.57 | 1155
308.15 K, x2 = 0.2795 | 879.91 | 1159.6
308.15 K, x2 = 0.3446 | 874.71 | 1164.3
308.15 K, x2 = 0.4132 | 868.61 | 1169.3
308.15 K, x2 = 0.4819 | 861.78 | 1174.6
308.15 K, x2 = 0.5597 | 852.99 | 1181
308.15 K, x2 = 0.6375 | 842.87 | 1188.1
308.15 K, x2 = 0.7251 | 829.52 | 1197.5
308.15 K, x2 = 0.8113 | 813.82 | 1208.6
308.15 K, x2 = 0.9014 | 793.83 | 1223.4
308.15 K, x2 = 0.9542 | 779.93 | 1234.1
313.15 K, x2 = 0 | 891.83 | 1121.5
313.15 K, x2 = 0.0556 | 889.04 | 1125.6
313.15 K, x2 = 0.1112 | 885.98 | 1129.8
313.15 K, x2 = 0.1631 | 882.85 | 1133.5
313.15 K, x2 = 0.2147 | 879.47 | 1137.1
313.15 K, x2 = 0.2795 | 874.81 | 1141.7
313.15 K, x2 = 0.3446 | 869.6 | 1146.3
313.15 K, x2 = 0.4132 | 863.49 | 1151.3
313.15 K, x2 = 0.4819 | 856.64 | 1156.5
313.15 K, x2 = 0.5597 | 847.83 | 1162.9
313.15 K, x2 = 0.6375 | 837.7 | 1169.9
313.15 K, x2 = 0.7251 | 824.32 | 1179.2
313.15 K, x2 = 0.8113 | 808.59 | 1190.3
313.15 K, x2 = 0.9014 | 788.57 | 1205
313.15 K, x2 = 0.9542 | 774.64 | 1215.7
318.15 K, x2 = 0 | 886.71 | 1104.6
318.15 K, x2 = 0.0556 | 883.94 | 1108.7
318.15 K, x2 = 0.1112 | 880.88 | 1112.8
318.15 K, x2 = 0.1631 | 877.75 | 1116.5
318.15 K, x2 = 0.2147 | 874.37 | 1120.1
318.15 K, x2 = 0.2795 | 869.7 | 1124.6
318.15 K, x2 = 0.3446 | 864.49 | 1129.2
318.15 K, x2 = 0.4132 | 858.37 | 1134.1
318.15 K, x2 = 0.4819 | 851.5 | 1139.2
318.15 K, x2 = 0.5597 | 842.68 | 1145.4
318.15 K, x2 = 0.6375 | 832.52 | 1152.3
318.15 K, x2 = 0.7251 | 819.12 | 1161.4
318.15 K, x2 = 0.8113 | 803.35 | 1172.3
318.15 K, x2 = 0.9014 | 783.3 | 1186.7
318.15 K, x2 = 0.9542 | 769.35 | 1197.3
